Assay results taken from US12280068B1 (ZYLORION HEALTH INC., priority 2023, dated 2025).

Experiments:
h5HT2A = target: T1, h5HT2A (Homo sapiens, UniProt P28223); experiment: NanoBit βarrestin2 recruitment assay in CHO-K1 cells; type: cell-based
T1 construct: expressed in transfected cells; host or cells: CHO-K1 cells, transient transfection with Lipofectamine 3000
Text: Cell Culture—CHO-K1 cells were transfected with either NanoBit™ smBIT h5HT2A plasmids and lgBiT βarrestin2 plasmid. When h5HT2A and βarrestin2 come into contact with one another the smBiT and lgBiT peptides complement each other to produce a complete NanoBit™ luciferase enzyme. When complete, the enzyme is able to catalyze the breakdown of the molecule coelenterazine to produce light. Emitted light levels are proportional to interactions between receptor and βarrestin2. Cells were maintained at 37° C., 5% CO2 in F-12 DMEM containing 1 mM L-glutamine, 10% FBS, and 1% Pen/Strep. For transfections, CHO-K1 cells were seeded in 6-well plates (500,000 cells per well) and incubated overnight in standard media as described above. Following overnight incubation, the cells were transfected with 1 μg of both the h5HT2A and the βarr2 NanoBiT plasmids. Transfections were carried out using Lipofectamine 3000 (Fisher Scientific, Ottawa, ON), according to the manufacturer's protocol in Opti-MEM media containing 1% FBS.
βarrestin2 assay—After seeding at 20,000 cells/well in flat bottom, white bottom, white wall, poly-D-lysine coated 96-well plates, transfected CHO-K1 cells were rinsed twice with Hank's buffered salt solution (HBSS), and 100 μL of HBSS was added to each of the wells. To this, 25 μL of Nano-Glo Live Cell Substrate was added (diluted 1/20 in the Nano-Glo LCS Dilution buffer, according to the manufacturer's protocol), and the plate was transferred to a Cytation5 plate reader. […] AUC data were then used for subsequent analyses.

human 5HT2A = target: T2, human 5HT2A (Homo sapiens, UniProt P28223); experiment: AequoScreen Ca2+ release assay in CHO-K1 cells; type: cell-based; conditions: for 5-HT2A-dependent Ca^2+ release Efficacy (% ± S.E.M.): CHO-K1 cells expressing h5HT2A
T2 construct: expressed in transfected cells
T2 sequence (P28223 whole entry): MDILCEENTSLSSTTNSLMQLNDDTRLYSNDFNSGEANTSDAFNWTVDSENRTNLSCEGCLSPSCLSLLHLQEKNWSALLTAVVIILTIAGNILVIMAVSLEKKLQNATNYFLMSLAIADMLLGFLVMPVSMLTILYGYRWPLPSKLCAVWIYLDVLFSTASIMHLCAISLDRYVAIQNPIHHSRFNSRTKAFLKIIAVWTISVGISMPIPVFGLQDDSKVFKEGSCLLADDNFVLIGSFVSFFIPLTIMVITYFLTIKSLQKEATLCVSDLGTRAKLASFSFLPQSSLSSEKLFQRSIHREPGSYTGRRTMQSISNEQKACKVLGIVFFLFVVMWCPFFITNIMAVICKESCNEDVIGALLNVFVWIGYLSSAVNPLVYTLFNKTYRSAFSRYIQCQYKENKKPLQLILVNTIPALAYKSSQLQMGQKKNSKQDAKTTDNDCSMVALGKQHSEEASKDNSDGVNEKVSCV
Experimental: Cell Culture—AequoScreen™ Chinese hamster ovary (CHO)-K1 cells stably expressing human 5HT2A or 5HT2B (h5HT2A, h5HT2B) were maintained at 37° C., 5% CO2 in F-12 DMEM containing 1 mM L-glutamine, 10% FBS, and 1% Pen/Strep.
Ca^2+ Assay—Release of Ca^2+ into the cellular cytosol upon GPCR-dependent activation of Gaq/11 was determined using the AequoScreen™ assay in CHO-K1 cells stably expressing h5HT2A or h5HT2B. […] Upon binding Ca^2+, apoaequorin becomes activated to aequorin and converts coelenterazine to coelenteramide, CO2, and light. Light production is therefore directly proportional to the release of Ca^2+ from intracellular stores upon GPCR activation. Cells were seeded into flat bottom, white bottom, white wall, poly-D-lysine coated 96-well plates (20,000 cells/well) and incubated overnight in Opti-MEM containing 1% FBS at 37° C. and 5% CO2. Following this, Opti-MEM media was removed and replaced with fresh Opti-MEM containing 5 μM coelenterazine h (Promega, Madison, WI) and 1% FBS (final volume 50 μL) and cells were incubated at 25° C. for 4 h. After these 4 h, cells were treated with 50 μL 2× concentrated ligand solutions to achieve the concentrations indicated and centrifuged at 1,000×g for 1 min at room temperature. Chemiluminescence was then immediately measured on a Cytation5 plate reader (top read, gain 200, integration time 10,000 msec).

[1] = CHO-K1 cells, AUC of first 30 min

T1 sequence (P28223 whole entry): as above
T1 sequence (P32121 whole entry, further chain): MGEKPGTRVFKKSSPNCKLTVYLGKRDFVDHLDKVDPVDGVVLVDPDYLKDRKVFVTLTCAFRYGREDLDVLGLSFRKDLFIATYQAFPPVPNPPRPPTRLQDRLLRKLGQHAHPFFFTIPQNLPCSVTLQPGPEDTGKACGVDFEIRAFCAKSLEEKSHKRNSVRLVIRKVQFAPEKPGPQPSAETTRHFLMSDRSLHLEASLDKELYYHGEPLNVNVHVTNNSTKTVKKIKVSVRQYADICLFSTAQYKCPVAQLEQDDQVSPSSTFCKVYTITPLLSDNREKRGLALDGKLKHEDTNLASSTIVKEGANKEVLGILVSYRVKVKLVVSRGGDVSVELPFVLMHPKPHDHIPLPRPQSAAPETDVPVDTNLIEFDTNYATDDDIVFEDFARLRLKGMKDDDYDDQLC

Compound	5-HT2A-dependent βarrestin2 recruitment Efficacy (% ± S.E.M.) (h5HT2A; [1])	5-HT2A βarrestin2 recruitment activity (in words) (h5HT2A)	5-HT2A Ca^2+ release activity (in words) (human 5HT2A)	5-HT2A-dependent Ca^2+ release Efficacy (% ± S.E.M.) (human 5HT2A)	5-HT2A-dependent βarrestin2 recruitment Potency (nM) (h5HT2A; [1])
NCCc1c[nH]c2ccc(O)cc12 [Serotonin (5HT), 5-hydroxytryptamine]	37 ± 16%	–	–	–	–
CN(C)CCc1c[nH]c2cccc(O)c12 [Psilocin]	45 ± 15%	intermediate potency	high potency	69 ± 12%	–
CN(C)CCc1c[nH]c2cccc(OP(=O)(O)O)c12 [Psilocybin]	3.7 ± 22%	–	–	69 ± 15%	not converged
CCN(CC)C(=O)[C@@H]1C=C2c3cccc4[nH]cc(c34)C[C@H]2N(C)C1 [LSD, lysergic acid diethylamide]	83 ± 4.7%	–	–	82 ± 4.7%	–
